The IC50 is the concentration at which inhibition is half-maximal. As a reminder, the MIC99 is the lowest concentration that inhibits either 99% of growth or 99% of the strains tested, depending on the study.

In brackets after ≈: the same amount, converted by molar mass. Positions of bridges follow the written chain, without caps; N, C: chain ends. Non-standard residues stand in square brackets, D forms with d. Residues, ends and D or L forms follow the SMILES beside them. *: point of attachment. X1 = CC[C@H](C)CCCCC(=O)*; Dab = NCC[C@H](N)C(=O)O

Among the data in ChEMBL document CHEMBL5096228, “Targeting Vancomycin-Resistant Enterococci (VRE) Infections and Van Operon-Mediated Drug Resistance Using Dimeric Cholic Acid-Peptide Conjugates” (J Med Chem, 2022) are IC50, hemolysis and MIC99 values, retold here.

A short description of series [1]: Cytotoxicity against mouse LLC cells assessed as reduction in cell viability. It counts as toxicity, cell-based. The note with it: LLC (3LL) cells.
Series [2] can be described thus: Hemolytic activity in human RBC at 50 ug/ml. Format: toxicity, cell-based, Erythrocyte. The conditions noted are these: red blood cells (erythrocytes), at 50 µg/mL, read-out: Activity.
Series [3] has as its system Enterococcus faecium. The series is described as follows: Antimicrobial activity against Vancomycin-resistant Enterococcus faecium ATCC 51559 assessed as growth inhibition after 14 to 16 hrs by CLSI based broth dilution method. It counts as functional. The conditions noted are these: time 14-16 hrs. Background: In broth dilution the organism is exposed to a series of concentrations in liquid medium.

The subject of series [4] is Enterococcus faecium. Kind of series: Antimicrobial activity against Enterococcus faecium assessed as growth inhibition after 14 to 16 hrs by CLSI based broth dilution method. It counts as functional. The conditions noted are these: time 14-16 hrs.
Series [5] deals with Staphylococcus aureus. Kind of series: Antimicrobial activity against methicillin-resistant Staphylococcus aureus ATCC 33591 assessed as growth inhibition after 14 to 16 hrs by CLSI based broth dilution method. Format: functional. The conditions noted are these: time 14-16 hrs.
The test system of series [6] is Staphylococcus aureus. Kind of series: Antimicrobial activity against Staphylococcus aureus ATCC 25923 assessed as growth inhibition after 14 to 16 hrs by CLSI based broth dilution method. It counts as functional. The conditions noted are these: time 14-16 hrs.

With `C[C@H](CCC(=O)NCc1cn(CCCn2cc(CNC(=O)CC[C@@H](C)[C@H]3CC[C@H]4[C@@H]5[C@H](OC(=O)CN)C[C@@H]6C[C@H](OC(=O)CN)CC[C@]6(C)[C@H]5C[C@H](OC(=O)CN)[C@]34C)nn2)nn1)[C@H]1CC[C@H]2[C@@H]3[C@H](OC(=O)CN)C[C@@H]4C[C@H](OC(=O)CN)CC[C@]4(C)[C@H]3C[C@H](OC(=O)CN)[C@]12C.Cl.Cl.Cl.Cl.Cl.Cl`, the IC50 in series [1] worked out at 131 µg/mL. The hemolysis at 50 ug/ml in series [2] is 9%. Also, the MIC99 was found to be 16 µg/mL in the series with Enterococcus faecium [3], 32 µg/mL in the series on Enterococcus faecium [4], 32 µg/mL in the series on Staphylococcus aureus [5] and 128 µg/mL in the series with Staphylococcus aureus [6].
Regarding `CC(C)C(N)C(=O)NCC(=O)O[C@@H]1CC[C@@]2(C)[C@@H](C1)C[C@@H](OC(=O)CNC(=O)C(N)C(C)C)[C@@H]1[C@@H]2C[C@H](OC(=O)CNC(=O)C(N)C(C)C)[C@]2(C)[C@@H]([C@H](C)CCC(=O)NCc3cn(CCCCCCn4cc(CNC(=O)CC[C@@H](C)[C@H]5CC[C@H]6[C@@H]7[C@H](OC(=O)CNC(=O)C(N)C(C)C)C[C@@H]8C[C@H](OC(=O)CNC(=O)C(N)C(C)C)CC[C@]8(C)[C@H]7C[C@H](OC(=O)CNC(=O)C(N)C(C)C)[C@]56C)nn4)nn3)CC[C@@H]12.Cl.Cl.Cl.Cl.Cl.Cl` (some centres not stated), the concentration for half-maximal inhibition (IC50) in series [1] was determined as 69 µg/mL. Besides, the hemolysis at 50 ug/ml in series [2] turned out to be 57%. Moreover, the MIC99 came out at 4 µg/mL in the series on Enterococcus faecium [3], 16 µg/mL with Enterococcus faecium [4], 32 µg/mL with Staphylococcus aureus [5] and 128 µg/mL with Staphylococcus aureus [6].
As for `CC(C)C(N)C(=O)NCC(=O)O[C@@H]1CC[C@@]2(C)[C@@H](C1)C[C@@H](OC(=O)CNC(=O)C(N)C(C)C)[C@@H]1[C@@H]2C[C@H](OC(=O)CNC(=O)C(N)C(C)C)[C@]2(C)[C@@H]([C@H](C)CCC(=O)OCc3ccccc3)CC[C@@H]12` (some centres not stated), the half-inhibitory concentration (IC50) in series [1] stood at 40 µg/mL. Further, the hemolysis at 50 ug/ml in series [2] came out at 95%. Besides, the MIC99 was determined as 2 µg/mL (≈ 2.07 µM) in the series on Enterococcus faecium [3], 8 µg/mL (≈ 8.27 µM) with Enterococcus faecium [4], 4 µg/mL (≈ 4.14 µM) in the series with Staphylococcus aureus [5] and 16 µg/mL (≈ 16.5 µM) in the series on Staphylococcus aureus [6].
With `CC[C@H](C)CCCCC(=O)N[C@@H](CCN)C(=O)N[C@H](C(=O)N[C@@H](CCN)C(=O)N[C@H]1CCNC(=O)[C@H]([C@@H](C)O)NC(=O)[C@H](CCN)NC(=O)[C@H](CCN)NC(=O)[C@H](CC(C)C)NC(=O)[C@@H](Cc2ccccc2)NC(=O)[C@H](CCN)NC1=O)[C@@H](C)O` (X1-[Dab]T[Dab][Dab][Dab][dF]L[Dab][Dab]T; lactam 4-C), the MIC99 in the series on Enterococcus faecium [3] was > 128 µg/mL; with Enterococcus faecium [4] it was > 128 µg/mL; with Staphylococcus aureus [5], 32 µg/mL (≈ 26.6 µM); with Staphylococcus aureus [6], 128 µg/mL (≈ 106 µM).
Take `C[C@H](CCC(=O)NCc1cn(CCCCCCn2cc(CNC(=O)CC[C@@H](C)[C@H]3CC[C@H]4[C@@H]5[C@H](OC(=O)CN)C[C@@H]6C[C@H](OC(=O)CN)CC[C@]6(C)[C@H]5C[C@H](OC(=O)CN)[C@]34C)nn2)nn1)[C@H]1CC[C@H]2[C@@H]3[C@H](OC(=O)CN)C[C@@H]4C[C@H](OC(=O)CN)CC[C@]4(C)[C@H]3C[C@H](OC(=O)CN)[C@]12C.Cl.Cl.Cl.Cl.Cl.Cl`: in series [1], the IC50 was found to be 66 µg/mL. For the same compound, in series [2], the hemolysis at 50 ug/ml is 58%. Further, the MIC99 with Enterococcus faecium [3] stood at 8 µg/mL; in the series with Enterococcus faecium [4] it was 16 µg/mL; with Staphylococcus aureus [5] it was 32 µg/mL; with Staphylococcus aureus [6], 128 µg/mL.
`C[C@H](CCC(=O)NCc1cn(CCCCn2cc(CNC(=O)CC[C@@H](C)[C@H]3CC[C@H]4[C@@H]5[C@H](OC(=O)CN)C[C@@H]6C[C@H](OC(=O)CN)CC[C@]6(C)[C@H]5C[C@H](OC(=O)CN)[C@]34C)nn2)nn1)[C@H]1CC[C@H]2[C@@H]3[C@H](OC(=O)CN)C[C@@H]4C[C@H](OC(=O)CN)CC[C@]4(C)[C@H]3C[C@H](OC(=O)CN)[C@]12C.Cl.Cl.Cl.Cl.Cl.Cl`: the concentration for half-maximal inhibition (IC50) in series [1] is 211 µg/mL. In addition, the hemolysis at 50 ug/ml in series [2] is 2%. Moreover, the MIC99 came out at 32 µg/mL with Enterococcus faecium [3], 64 µg/mL with Enterococcus faecium [4], 64 µg/mL in the series with Staphylococcus aureus [5] and 128 µg/mL in the series with Staphylococcus aureus [6].
As for `NC[C@@H]1O[C@H](O[C@H]2[C@@H](O)[C@H](O[C@@H]3[C@@H](O)[C@H](N)C[C@H](N)[C@H]3O[C@H]3O[C@H](CN)[C@@H](O)[C@H](O)[C@H]3N)O[C@@H]2CO)[C@H](N)[C@@H](O)[C@@H]1O` [FRAMYCETIN], the IC50 in series [1] was > 1000 µM. Also, the MIC99 in the series on Enterococcus faecium [3] was > 128 µg/mL; in the series on Enterococcus faecium [4] it was 16 µg/mL (≈ 26 µM); in the series on Staphylococcus aureus [5] it was > 128 µg/mL; in the series on Staphylococcus aureus [6], 16 µg/mL (≈ 26 µM).
Consider `C[C@H](CCC(=O)NCc1cn(CCCCCn2cc(CNC(=O)CC[C@@H](C)[C@H]3CC[C@H]4[C@@H]5[C@H](OC(=O)CN)C[C@@H]6C[C@H](OC(=O)CN)CC[C@]6(C)[C@H]5C[C@H](OC(=O)CN)[C@]34C)nn2)nn1)[C@H]1CC[C@H]2[C@@H]3[C@H](OC(=O)CN)C[C@@H]4C[C@H](OC(=O)CN)CC[C@]4(C)[C@H]3C[C@H](OC(=O)CN)[C@]12C.Cl.Cl.Cl.Cl.Cl.Cl`, for which the 50% inhibitory concentration (IC50) in series [1] turned out to be 153 µg/mL. Also, the hemolysis at 50 ug/ml in series [2] came out at 10%. Also, the MIC99 is 16 µg/mL in the series with Enterococcus faecium [3], 32 µg/mL in the series with Enterococcus faecium [4], 64 µg/mL in the series with Staphylococcus aureus [5] and 128 µg/mL in the series with Staphylococcus aureus [6].
As to `CC(C)C(N)C(=O)NCC(=O)O[C@@H]1CC[C@@]2(C)[C@@H](C1)C[C@@H](OC(=O)CNC(=O)C(N)C(C)C)[C@@H]1[C@@H]2C[C@H](OC(=O)CNC(=O)C(N)C(C)C)[C@]2(C)[C@@H]([C@H](C)CCC(=O)NCc3cn(CCCCn4cc(CNC(=O)CC[C@@H](C)[C@H]5CC[C@H]6[C@@H]7[C@H](OC(=O)CNC(=O)C(N)C(C)C)C[C@@H]8C[C@H](OC(=O)CNC(=O)C(N)C(C)C)CC[C@]8(C)[C@H]7C[C@H](OC(=O)CNC(=O)C(N)C(C)C)[C@]56C)nn4)nn3)CC[C@@H]12.Cl.Cl.Cl.Cl.Cl.Cl` (some centres not stated), in series [1], the 50% inhibitory concentration (IC50) was 52 µg/mL. Also, the hemolysis at 50 ug/ml in series [2] was determined as 50%. For the same compound, the MIC99 came out at 4 µg/mL in the series with Enterococcus faecium [3], 8 µg/mL in the series on Enterococcus faecium [4], 32 µg/mL in the series on Staphylococcus aureus [5] and 128 µg/mL in the series with Staphylococcus aureus [6].
Consider `CC(C)C(N)C(=O)NCC(=O)O[C@@H]1CC[C@@]2(C)[C@@H](C1)C[C@@H](OC(=O)CNC(=O)C(N)C(C)C)[C@@H]1[C@@H]2C[C@H](OC(=O)CNC(=O)C(N)C(C)C)[C@]2(C)[C@@H]([C@H](C)CCC(=O)NCc3cn(CCCCCn4cc(CNC(=O)CC[C@@H](C)[C@H]5CC[C@H]6[C@@H]7[C@H](OC(=O)CNC(=O)C(N)C(C)C)C[C@@H]8C[C@H](OC(=O)CNC(=O)C(N)C(C)C)CC[C@]8(C)[C@H]7C[C@H](OC(=O)CNC(=O)C(N)C(C)C)[C@]56C)nn4)nn3)CC[C@@H]12.Cl.Cl.Cl.Cl.Cl.Cl` (some centres not stated), for which, in series [1], the half-maximal inhibitory concentration (IC50) is 96 µg/mL. Moreover, the hemolysis at 50 ug/ml in series [2] stood at 36%. Also, the MIC99 came out at 4 µg/mL with Enterococcus faecium [3], 16 µg/mL with Enterococcus faecium [4], 32 µg/mL in the series with Staphylococcus aureus [5] and 128 µg/mL with Staphylococcus aureus [6].
